In PMC7140460, “Fluorinated Galactoses Inhibit Galactose-1-Phosphate Uridyltransferase and Metabolically Induce Galactosemia-like Phenotypes in HEK-293 Cells” (Cells, 2020) one finds Ki data, which are given here for one compound.

The assay concerns the target T1, recombinant hGALT (human galactose-1-phosphate uridyltransferase) (Homo sapiens, UniProt P07902).
T1 construct: gene GALT; synthetic gene in pET-15b (NdeI-BamHI, insert 1149 bp), His-tagged, E. coli BL21(DE3)-RIPL, Ni-NTA purified; tag removal not mentioned
The assay can be described thus: coupled PGM/G6PDH assay, NADPH absorbance at […] nm. The class given is biochemical.

T1 sequence (P07902 whole entry): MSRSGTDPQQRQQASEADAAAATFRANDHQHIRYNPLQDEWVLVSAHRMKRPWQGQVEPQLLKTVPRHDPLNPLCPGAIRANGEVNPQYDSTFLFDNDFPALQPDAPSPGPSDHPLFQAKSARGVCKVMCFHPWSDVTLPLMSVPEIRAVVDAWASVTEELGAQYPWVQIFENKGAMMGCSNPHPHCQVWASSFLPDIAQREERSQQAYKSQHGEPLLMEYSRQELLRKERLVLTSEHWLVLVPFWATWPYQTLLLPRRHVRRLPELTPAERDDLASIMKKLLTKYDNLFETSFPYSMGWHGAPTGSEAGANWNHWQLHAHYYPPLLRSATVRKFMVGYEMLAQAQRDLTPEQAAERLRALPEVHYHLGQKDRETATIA

For `O=P(O)(O)O[C@H]1O[C@H](CO)[C@H](O)[C@H](O)[C@H]1F` [F-Gal-1-P, 2-fluoro-2-deoxy-galactose-1-phosphate], the inhibition constant (Ki) came to 900 µM.
